Consider five molecules from PMC8395886, “Square-Planar vs. Trigonal Bipyramidal Geometry in Pt(II) Complexes Containing Triazole-Based Glucose Ligands as Potential Anticancer Agents” (International Journal of Molecular Sciences, 2021).

The subject of data set [1] is A431 cells. In words: GLUT1-inhibitor-mediated cytotoxicity assay (quercetin, MTT). Type of data set: cell-based, human. Here is the method: (§1) The cell death mechanism induced by 4Pt-py was analyzed on A431 cells. First, the internalization process of 4Pt-py was evaluated by studying the involvement of GLUT receptors. In particular, 4Pt-py internalization and cytotoxicity were tested using quercetin as a glucose transporter inhibitor [24, 30, 42]. […] The 10 µM concentration used was very similar to the IC50 value, and then, a double value (20 µM) was also used to definitely exclude necrosis at very high concentrations.
(§2) A431, H9c2, and MCF7 cells were purchased from American Type Culture Collection (ATCC). HaCaT cells were from Innoprot (Derio, Spain). Cells were cultured in DMEM (Sigma-Aldrich, St. Louis, MO, USA), supplemented with 10% fetal bovine serum (HyClone, Thermo Scientific, Logan, UT, USA) and antibiotics in a 5% CO2 humidified atmosphere at 37 °C. The growth medium of H9c2 cells was implemented with 2 mM L-glutamine and 2 mM sodium pyruvate. […] After 48 h incubation, cell viability was assessed by MTT assay, as described in a previous study. […] Significance was determined by Student’s t-test.
Figure 8 Analysis of the mechanism of action of 4Pt-py. […] Cell viability was assessed using the MTT assay after 48 h incubation. […] (B) Cells were incubated with increasing amounts of 4Pt-py for 48 h, and the release of LDH was measured. […] The % of LDH release was calculated as described in the Materials and Methods section.

Data set [2] relates to A431 (epidermoid carcinoma cells). Kind of data set: MTT cytotoxicity assay on A431 cells. The data set is classed as cell-based, human. The note with it: for IC50: 48 h incubation; for Selectivity Index H9c2/A431 / Selectivity Index HaCaT/A431: IC50 immortalized cells/IC50 cancer cells.
Experimental: (§6) A431, H9c2, and MCF7 cells were purchased from American Type Culture Collection (ATCC). HaCaT cells were from Innoprot (Derio, Spain). Cells were cultured in DMEM (Sigma-Aldrich, St. Louis, MO, USA), supplemented with 10% fetal bovine serum (HyClone, Thermo Scientific, Logan, UT, USA) and antibiotics in a 5% CO2 humidified atmosphere at 37 °C. The growth medium of H9c2 cells was implemented with 2 mM L-glutamine and 2 mM sodium pyruvate. Cells were seeded in 96-well plates at a density of 2.5 × 10^3 cells per well. Different drugs were added at increasing concentrations 24 h after seeding for dose-dependent assays. […] After 48 h incubation, cell viability was assessed by MTT assay, as described in a previous study [30]. Control experiments were performed by either growing cells in the absence of the compound or by supplementing the cell cultures with identical volumes of buffer (water:acetone, 1:1 v/v). Each value is the mean of three independent experiments, each with three determinations. Significance was determined by Student’s t-test.
The subject of data set [3] is MCF-7 (breast cancer cells). Kind of data set: MTT cytotoxicity assay on MCF7 cells. The data set is classed as cell-based, human. The conditions noted are these: for IC50: 48 h incubation; for Selectivity Index H9c2/MCF7 / Selectivity Index HaCaT/MCF7: IC50 immortalized cells/IC50 cancer cells.
Experimental: as §6
The subject of another data set is procaspase-9. The note with it: A431 cells, 12 μM, 48 h. How it is done:
(§3) The activation of the apoptotic pathway was analyzed by Western blotting and an analysis of the mitochondrial potential as it is well known that mitochondrial outer membrane permeabilization is essential to initiate mitochondrial apoptosis.
(§4) A431 cells were plated at a density of 3 × 10^5 cells cm^−2 in a complete medium for 24 h and then treated for 48 h with 12 µM 4Pt-py. At the end of the incubation, both untreated and treated cells were analyzed, as described previously for Western blot analyses. Upon the determination of total protein concentration in the supernatant by the Bradford assay, samples were analyzed by SDS-PAGE and Western blot using specific antibodies directed towards procaspase-3 or -9 (Cell Signal Technology, Danvers, MA, USA). β-actin (Sigma-Aldrich) or GAPDH (Thermo Fisher, Rockford, IL, USA) was used as the loading control. Each value is the mean of three independent experiments, each with three determinations. Significance was determined by Student’s t-test.
(§5) A431 cells were incubated with 12 μM of 4Pt-py for 48 h. (A,B) Analysis by Western blotting of pro-caspase-3 and -9. Β-actin or GAPDH was used as the loading control.

For another data set, the system named is procaspase-3. The conditions noted are these: A431 cells, 12 μM, 48 h. Here is the method: as §3, §4, §5
The subject of data set [4] is H9c2 (rat cardiomyoblast cells). In words: MTT cytotoxicity assay on H9c2 cells. The conditions noted are these: 48 h incubation. The data set is classed as cell-based.
Experimental: as §6
A short description of data set [5]: In-solution stability by 1H-NMR over time. Type of data set: physicochemical. How it is done: To compare the solution stability of the complexes, ^1H-NMR and UV–vis spectra over time were recorded for 4Pt type species dissolved in diverse aqueous (phosphate buffer, PB; pH 7.4): organic solvent mixtures, i.e., 1:1 v/v D2O:acetone-d6; 9:1 v/v PB:DMSO-d6; 1:1 v/v PB:DMSO-d6 and DMSO-d6. These solvents were selected to verify the stability in pseudo-physiological conditions in the presence of solvents with different coordinating properties and concentrations.
The appropriate 4Pt complex (5 mg) was dissolved in 0.5 mL of DMSO-d6 or acetone-d6. Calculated volumes of solution were diluted to 600 µL with the appropriate volumes of PB in D2O (25 mM, pH 7.4) and/or DMSO-d6 to provide a 1 mM solution of the complex with the appropriate v/v ratio of solvents. Samples were incubated at 37 °C, and NMR spectra were recorded at different times.

Data set [6] deals with HaCaT (human keratinocyte cells). In words: MTT cytotoxicity assay on HaCaT cells. Type of data set: cell-based. The note with it: 48 h incubation.
Experimental: as §6
Data set [7] has as its system A431 cells. The note with it: IC50 value (12 µM) and 20 µM, 48 h. Here is the method:
as §3
Each value is the mean of three independent experiments, each with three determinations. Significance was determined by Student’s t-test.
as §5

Data set [8] relates to A431 cells. In words: LDH release (necrosis). The note with it: 10 and 20 µM, 48 h. Type of data set: cell-based, human. How it is done:
as §1
The occurrence of necrosis was determined by measuring the release of lactate dehydrogenase (LDH) in the culture medium, as described by Sucha et al.. The LDH content of the medium from untreated cells was referred to as a spontaneous release, whereas the LDH total cellular content was determined upon cell lysis. The percentage of LDH release was calculated as:(1) LDH release % = [experimental−spontaneus release/total content−spontaneous release]×100
Figure 8 Analysis of the mechanism of action of 4Pt-py. (A) Glucose-transporter-dependent cytotoxicity of 4Pt-py on A431 cells. […] Cell viability was assessed using the MTT assay after 48 h incubation. […] (B) Cells were incubated with increasing amounts of 4Pt-py for 48 h, and the release of LDH was measured. […] The % of LDH release was calculated as described in the Materials and Methods section.

For data set [9], the system named is HaCaT (human keratinocyte cells). The conditions noted are these: 48 h incubation; read-out: MTT IC50 48 h, HaCaT; cited from earlier work.
The subject of data set [10] is A431 (epidermoid carcinoma cells). The conditions noted are these: 48 h incubation; read-out: MTT IC50 48 h, A431; cited from earlier work.
For data set [11], the system named is MCF-7, A431, H9c2 and HaCaT cells. Kind of data set: MTT assay, all the analyzed cell lines (statement in words). The data set is classed as cell-based. The note with it: 48 h. Here is the method:
The biological effect of the Pt-compounds was tested on two human tumor cell lines, MCF-7 (breast cancer cells) and A431 (epidermoid carcinoma cells), and two non-tumorigenic cell lines, H9c2 (rat cardiomyoblast cells), and HaCaT (human keratinocyte cells), using the MTT assay. […] Indeed, due to their inertness towards the substitution of the sugar ligand, their biological activity can be influenced by the nature of the sugar ligand, whose presence in the complex can affect its internalization or mechanism of action once inside the cell. On the other hand, in the case of the five-coordinate complexes, the loss of the sugar tag plausibly determines their substantial leveling of activities. […] The behavior of 4Pt-im was very similar to that of 4Pt-py.
as §2

Like-named read-outs stand apart in the source and are kept apart here.

Consider `CC(=O)OC[C@H]1O[C@@H](n2cc(-c3ccc[n+]([Pt-2]4([CH3])[n+]5cccc6ccc7ccc[n+]4c7c65)c3)nn2)[C@H](OC(C)=O)[C@@H](OC(C)=O)[C@@H]1OC(C)=O.O=S(=O)([O-])C(F)(F)F` [4Pt-py], for which the “Inhibition of cytotoxicity by glucose transporter inhibitor quercetin” value in the data set on A431 cells [1] (A431 cells, 0.5–200 μM compound ± 5 μM quercetin, 48 h) was “no inhibition of cytotoxicity was observed in the presence of quercetin”. Moreover, in data set [2], the IC50 came out at 12 ± 2 µM, the “Selectivity Index H9c2/A431” value was determined as 1.83 and the “Selectivity Index HaCaT/A431” value turned out to be 5.5. Also, in data set [3], the half-maximal inhibitory concentration (IC50) is 35 ± 4 µM, the “Selectivity Index H9c2/MCF7” value was 0.63 and the “Selectivity Index HaCaT/MCF7” value came to 1.88. Further, the Pro-caspase-9 signal result with procaspase-9 was “small but significant decrease”. In the data set with procaspase-3, the Pro-caspase-3 signal result is “small but significant decrease”. In [4], half-maximal inhibition (IC50) required 22 ± 10 µM. The “Time to equilibrium of sugar ligand/DMSO exchange” value in data set [5] (1:1 v/v PB:DMSO-d6, 37 °C) is 24 h. In data set [6], this molecule had an IC50 of 66 ± 11 µM. Moreover, the “Mitochondrial potential (Δψm)” value in the data set with A431 cells [7] is “significant decrease”. Moreover, the LDH release result in the data set on A431 cells [8] is on record as “no LDH release was observed”.

As for `N.N.[Cl][Pt][Cl]` [Cisplatin, reference compound], the “Selectivity Index H9c2/A431” value in data set [2] amounted to 0.2. Further, the “Selectivity Index HaCaT/A431” value in data set [2] turned out to be 0.17. The half-inhibitory concentration (IC50) in data set [3] was 18 ± 1.6 µM; in [9], 6.6 ± 0.3 µM; in data set [4], 8 ± 2.1 µM; in data set [10], 39 ± 12 µM. Moreover, the “Selectivity Index H9c2/MCF7” value in data set [3] is recorded as 0.44.

With `Cn1c[n+]([Pt-2]2([CH3])[n+]3cccc4ccc5ccc[n+]2c5c43)cc1-c1cn([C@@H]2O[C@H](CO)[C@@H](O)[C@H](O)[C@H]2O)nn1.O=S(=O)([O-])C(F)(F)F` [4Pt-imdep], the IC50 in [2], in [3], in data set [4] and in data set [6] was greater than 200 µM in each case. In [11], the “Toxic activity (in words)” value was “No toxic activity was observed”.

As for `CC(=O)OC[C@H]1O[C@@H](n2cc(-c3c[n+]([Pt-2]4([CH3])[n+]5cccc6ccc7ccc[n+]4c7c65)cn3C)nn2)[C@H](OC(C)=O)[C@@H](OC(C)=O)[C@@H]1OC(C)=O.O=S(=O)([O-])C(F)(F)F` [4Pt-im], in [2], the 50% inhibitory concentration (IC50) stood at 16 ± 8 µM, the “Selectivity Index H9c2/A431” value worked out at 3.3 and the “Selectivity Index HaCaT/A431” value is 1.69. In data set [3], the IC50 is 43 ± 7 µM, the “Selectivity Index H9c2/MCF7” value turned out to be 1.23 and the “Selectivity Index HaCaT/MCF7” value is on record as 0.63. In addition, in data set [4], half-maximal inhibition (IC50) was put at 53 ± 11 µM. The “Structural variations in solution (1H-NMR)” value in data set [5] (1:1 v/v D2O:acetone-d6, over 3 days) is listed as “No appreciable structural variations”. Besides, in [6], the 50% inhibitory concentration (IC50) came to 27 ± 7 µM.

In the case of `O=c1c(O)c(-c2ccc(O)c(O)c2)oc2cc(O)cc(O)c12` [quercetin, reference compound], in the data set with A431 cells [1] (5 μM, data not shown), the “Lethality of quercetin alone” value was “non-lethal concentration”.
